Source: US8167866B2, “Drug delivery system for accelerated subcutaneous absorption” (priority 2004, dated 2012)

Tests used:
[1] = typical duration; routine lidocaine versus tumescent infiltration; cited from earlier work
cutaneous blood vessels = assay: topical application of aqueous solution, erythema of the affected area; type: in vivo, human; settings: patient, within minutes
Text: The fluid or the solution of pharmacologic drug may include a crystalloid solution or a dilute solution of pharmacologic drug such as an antibiotic. The drug used to accelerate the absorption rate of the fluid or the pharmacologic drug is operative to cause capillary vasodilatation, that is, vasodilatation of cutaneous blood vessels. The dilation of capillaries increases the rate of blood flowing through the affected subcutaneous tissue; and consequently, increases the rate of absorption into the systemic circulation of the fluid or pharmacologic drug. As the rate of absorption and circulation of the fluid or pharmacologic drug increases, a clinically significant degree of systemic absorption of the fluid or pharmacologic drug can be achieved without the application of IV access. Currently, many drugs are available to provide the vasodilatation of cutaneous blood vessels of a human body. However, it is appreciated that those drugs which are pharmacologic and potentially toxic to the human bodies are not the appropriate candidates for such drug. For example, although lidocaine is effective to cause dilation of capillaries and increase the rate of blood flowing through affected subcutaneous tissue, which in turn accelerates the absorption rate of drug, it might not be an appropriate candidate for such a drug due to its potentially toxic effect if its concentration is too high. […]

SMILES	duration of local anesthesia [1] [h]	erythema of the affected area (cutaneous blood vessels)
CCN(CC)CC(=O)Nc1c(C)cccc1C [lidocaine]	~2	–
COC(=O)c1cccnc1 [methyl-nicotinate]	–	very obvious erythema
CNC(=O)c1cccnc1 [methyl-nicotinamide]	–	very obvious erythema
